In PMC10648852, “Molecular drivers of resistance to sulbactam-durlobactam in contemporary clinical isolates of Acinetobacter baumannii” (Antimicrobial Agents and Chemotherapy, 2023):

What was measured:
[1] = system: A. baumannii AB5075 and transposon mutants in efflux genes; assay: Broth microdilution MIC, isogenic A. baumannii transposon mutants in efflux genes; format: cell-based; settings: for In vitro activity (MIC): tested in duplicate; for MIC changes as compared to the parent strain: all tested efflux gene disruptions, AB5075
Method: To further assess the role of efflux in SUL-DUR activity against Acinetobacter spp., two panels of A. baumannii isogenic strains were tested. The first consisted of 7 members of an A. baumannii transposon library ([28]) with single gene disruptions in the adeABC, adeIJK, or adeT loci as compared to the parent strain, AB5075. […] This panel of strains consists of four different point mutants in AdeR and five different point mutants in AdeS, which result in the upregulation of AdeABC expression. In addition, this panel contains chromosomal deletions of adeL and adeN, which result in overexpression of AdeFGH and AdeIJK, respectively ([29]).
The parent and each isogenic mutant strain in both panels was measured for susceptibility to sulbactam, durlobactam, SUL-DUR, imipenem, and gentamicin. […].
The AB5075 parent strain as well as transposon interrupted AdeABC, AdeIJK, and AdeT were purchased from the Manoil laboratory at the University of Washington from their arrayed transposon mutant collection ([28]). The KAB1544 parent as well as efflux pump regulator mutants and deletions were constructed as previously described ([29]).
Antimicrobial susceptibility testing was performed using broth microdilution following standardized methods established by the Clinical Laboratory Standards Institute (CLSI) ([35], [36]). Quality control testing was performed as specified by CLSI using A. baumannii NCTC 13304 ([35]). MIC values were interpreted using CLSI breakpoints for all antimicrobial agents except those for which CLSI breakpoints are not available ([35]). SUL-DUR was tested as twofold dilutions of sulbactam in combination with a fixed concentration of 4 µg/mL durlobactam ([35]).

[2] = system: 5,032 ABC clinical isolates; settings: 5,032 ABC clinical isolates 2016-2021; durlobactam fixed at 4 µg/mL in SUL-DUR; cited from earlier work

Structure (SMILES): C[C@@H](O)[C@H]1C(=O)N2C(C(=O)O)=C(SCCN=CN)C[C@H]12 [imipenem]
- In vitro activity (MIC) ([1]; Parent (AB5075)): 16 µg/mL
- In vitro activity (MIC) ([1]; adeA::tn in AB5075): 8 µg/mL
- In vitro activity (MIC) ([1]; adeB::tn in AB5075): 8 µg/mL
- In vitro activity (MIC) ([1]; adeC::tn in AB5075): 16 µg/mL
- In vitro activity (MIC) ([1]; adeI::tn in AB5075): 16 µg/mL
- In vitro activity (MIC) ([1]; adeJ::tn in AB5075): 16 µg/mL
- In vitro activity (MIC) ([1]; adeK::tn in AB5075): 16 µg/mL
- In vitro activity (MIC) ([1]; adeT::tn in AB5075): 8 µg/mL
- MIC changes as compared to the parent strain [1]: ≤ 2 fold

Structure (SMILES): CC1(C)[C@H](C(=O)O)N2C(=O)C[C@H]2S1(=O)=O [sulbactam]
- MIC50 [2]: 8 µg/mL
- MIC90 [2]: 32 µg/mL
- In vitro activity (MIC) ([1]; Parent (AB5075)): 64 µg/mL
- In vitro activity (MIC) ([1]; adeA::tn in AB5075): 32 µg/mL
- In vitro activity (MIC) ([1]; adeB::tn in AB5075): 32 µg/mL
- In vitro activity (MIC) ([1]; adeC::tn in AB5075): 64 µg/mL
- In vitro activity (MIC) ([1]; adeI::tn in AB5075): 32 µg/mL
- In vitro activity (MIC) ([1]; adeJ::tn in AB5075): 64 µg/mL
- In vitro activity (MIC) ([1]; adeK::tn in AB5075): 32 µg/mL
- In vitro activity (MIC) ([1]; adeT::tn in AB5075): 64 µg/mL
- MIC changes as compared to the parent strain [1]: ≤ 2 fold
